The results in this text go back to patent publication US11771709B2, “ALK protein degradation agent and anti-tumor application thereof” (ShanghaiTech University, priority 2017, dated 2023).

One experiment has as its system SR (NPM-ALK) cells. Description: Growth inhibition IC50 in ALCL SR cells (CCK8/WST, 72 hours). In kind it is cell-based. The conditions noted are these: SR cells, WST.
Experiment [1] has as its target T1, ALK protein in H3122 (EML4-ALK) cells (Homo sapiens, UniProt Q9UM73).
T1 construct: EML4 (Echinoderm microtubule-associated protein-like 4, Q9HC35) fusion partner, variant 1; host or cells: NCI-H3122 lung adenocarcinoma cells; the other entry of the earlier key: EML4 (Q9HC35, Echinoderm microtubule-associated protein-like 4)
Description: Western blot of ALK protein level (degradation, DC50), ALK phosphorylation and downstream signaling in H3122 cells. In kind it is cell-based. The conditions noted are these: for DC50: ALK protein degradation in H3122 cells; for phosphorylation of AKT and ERK / ALK protein level / degradation: H3122 cells, western blot; for ALK protein level / degradation: up to 500 nM.

The mark [2] stands for this setting: 72 h, Brigatinib-based PROTAD molecules (Table 3).
Where [3] appears, read: Alectinib based ALK PROTAD compounds (Table 4).

T1 sequence (Q9UM73 with tags, fused parts or gaps): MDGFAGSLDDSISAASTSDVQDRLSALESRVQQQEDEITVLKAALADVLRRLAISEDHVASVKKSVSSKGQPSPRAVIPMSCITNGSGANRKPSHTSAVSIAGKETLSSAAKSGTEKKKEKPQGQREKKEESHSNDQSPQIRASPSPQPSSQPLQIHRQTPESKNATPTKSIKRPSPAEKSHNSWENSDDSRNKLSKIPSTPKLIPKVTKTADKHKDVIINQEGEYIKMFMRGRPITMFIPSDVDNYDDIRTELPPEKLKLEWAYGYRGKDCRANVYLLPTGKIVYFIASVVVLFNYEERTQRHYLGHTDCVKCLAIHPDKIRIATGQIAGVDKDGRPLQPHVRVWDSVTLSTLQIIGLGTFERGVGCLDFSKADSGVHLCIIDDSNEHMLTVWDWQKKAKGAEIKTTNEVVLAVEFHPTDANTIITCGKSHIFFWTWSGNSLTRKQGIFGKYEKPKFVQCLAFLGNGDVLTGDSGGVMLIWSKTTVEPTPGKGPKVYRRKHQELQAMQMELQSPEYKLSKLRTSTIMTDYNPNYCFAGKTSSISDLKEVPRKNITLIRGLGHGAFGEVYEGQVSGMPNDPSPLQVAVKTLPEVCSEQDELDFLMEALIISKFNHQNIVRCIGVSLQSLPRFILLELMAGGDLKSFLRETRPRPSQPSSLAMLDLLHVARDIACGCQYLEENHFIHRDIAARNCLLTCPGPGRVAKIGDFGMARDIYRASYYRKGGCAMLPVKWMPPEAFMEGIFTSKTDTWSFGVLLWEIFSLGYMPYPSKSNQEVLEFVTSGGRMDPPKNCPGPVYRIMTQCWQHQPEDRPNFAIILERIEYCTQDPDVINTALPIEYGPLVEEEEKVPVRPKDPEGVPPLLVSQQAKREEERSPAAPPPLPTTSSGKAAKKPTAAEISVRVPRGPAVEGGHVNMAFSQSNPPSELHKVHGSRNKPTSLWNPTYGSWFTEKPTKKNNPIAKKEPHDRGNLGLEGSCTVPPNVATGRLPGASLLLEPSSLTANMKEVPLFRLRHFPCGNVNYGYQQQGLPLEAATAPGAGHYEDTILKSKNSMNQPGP
Description for SR (NPM-ALK) cells: SR (NPM-ALK) and NCI-H2228 (EML4-ALK, V3) cells were purchased from ATCC. […] All Cells were cultured in RPMI1640 medium with 10% FBS and Penicillin-Streptomycin in 37° C. incubator with 5% CO2.
Cells were seeded at specific density in 96 well plates one day before treatment. […] Viable cells were measured via CCK8 reagent and IC50s were calculated via Prism Graphad. Experiments were repeated at least three times.

Consider `COc1cc(N2CCC(NC(=O)CCOCCNc3cccc4c3C(=O)N(C3CCC(=O)NC3=O)C4=O)CC2)ccc1Nc1ncc(Cl)c(Nc2ccccc2P(C)(C)=O)n1` (stereo not drawn) [SIAIS151113], for which the IC50 in the experiment on SR (NPM-ALK) cells (setting [2]) stood at 0.0075 ± 0.0052 µM. The DC50 in experiment [1] fell in the range of 100 to 500 nM.
With `COc1cc(N2CCC(NC(=O)CCOCCOCCNc3cccc4c3C(=O)N(C3CCC(=O)NC3=O)C4=O)CC2)ccc1Nc1ncc(Cl)c(Nc2ccccc2P(C)(C)=O)n1` (stereo not drawn) [SIAIS151114, N-(1-(4-((5-chloro-4-((2-(dimethylphosphoryl)phenyl)amino)pyrimidin-2-yl)amino)-3-methoxyphenyl)piperidin-4-yl)-3-(2-(2-((2-(2,6-dioxopiperidin-3-yl)-1,3-dioxoisoindolin-4-yl)amino)ethoxy)ethoxy)propenamide], the IC50 in the experiment on SR (NPM-ALK) cells (setting [2]) was 0.0109 ± 0.0075 µM. This molecule came in with a DC50 in experiment [1] of 100 to 500 nM.
On to `COc1cc(N2CCC(NC(=O)CCOCCOCCOCCNc3cccc4c3C(=O)N(C3CCC(=O)NC3=O)C4=O)CC2)ccc1Nc1ncc(Cl)c(Nc2ccccc2P(C)(C)=O)n1` (stereo not drawn) [SIAIS151115, N-(1-(4-((5-chloro-4-((2-(dimethylphosphoryl)phenyl)amino)pyrimidin-2-yl)amino)-3-methoxyphenyl)piperidin-4-yl)-3-(2-(2-(2-((2-(2,6-dioxopiperidin-3-yl)-1,3-dioxoisoindolin-4-yl)amino)ethoxy)ethoxy)ethoxy)propenamide], for which, in the experiment on SR (NPM-ALK) cells (setting [2]), the midpoint of inhibition, the IC50, lay at 0.008 ± 0.0032 µM. The same molecule displayed a DC50 in experiment [1] of 100 to 500 nM.
With `COc1cc(N2CCC(NC(=O)CCOCCOCCOCCOCCNc3cccc4c3C(=O)N(C3CCC(=O)NC3=O)C4=O)CC2)ccc1Nc1ncc(Cl)c(Nc2ccccc2P(C)(C)=O)n1` (stereo not drawn) [SIAIS151116, N-(1-(4-((5-chloro-4-((2-(dimethylphosphoryl)phenyl)amino)pyrimidin-2-yl)amino)-3-methoxyphenyl)piperidin-4-yl)-1-((2-(2,6-dioxopiperidin-3-yl)-1,3-dioxoisoindolin-4-yl)amino)-3,6,9,12-tetraoxapentadecan-15-amide], half-maximal inhibition in the experiment with SR (NPM-ALK) cells (setting [2]) (IC50) required 0.0153 ± 0.0098 µM. Also, in experiment [1], the DC50 lay in the range of 100 to 500 nM.
As for `COc1cc(N2CCC(NC(=O)CCCCNc3cccc4c3C(=O)N(C3CCC(=O)NC3=O)C4=O)CC2)ccc1Nc1ncc(Cl)c(Nc2ccccc2P(C)(C)=O)n1` (stereo not drawn) [SIAIS151119, N-(1-(4-((5-chloro-4-((2-(dimethylphosphoryl)phenyl)amino)pyrimidin-2-yl)amino)-3-methoxyphenyl)piperidin-4-yl)-5-((2-(2,6-dioxopiperidin-3-yl)-1,3-dioxoisoindolin-4-yl)amino)pentanamide], the IC50 with SR (NPM-ALK) cells (setting [2]) was 0.0016 ± 0.001 µM. In experiment [1], this molecule gave a DC50 of 100 to 500 nM.
On the same counts, the results for `COc1cc(N2CCC(NC(=O)CNc3cccc4c3C(=O)N(C3CCC(=O)NC3=O)C4=O)CC2)ccc1Nc1ncc(Cl)c(Nc2ccccc2P(C)(C)=O)n1` (stereo not drawn) [SIAIS151120, N-(1-(4-((5-chloro-4-((2-(dimethylphosphoryl)phenyl)amino)pyrimidin-2-yl)amino)-3-methoxyphenyl)piperidin-4-yl)-2-((2-(2,6-dioxopiperidin-3-yl)-1,3-dioxoisoindolin-4-yl)amino)acetamide] are 0.0114 ± 0.0078 µM and 20 to 100 nM.
On the same counts, the results for `COc1cc(N2CCC(NC(=O)CCNc3cccc4c3C(=O)N(C3CCC(=O)NC3=O)C4=O)CC2)ccc1Nc1ncc(Cl)c(Nc2ccccc2P(C)(C)=O)n1` (stereo not drawn) [SIAIS151121, N-(1-(4-((5-chloro-4-((2-(dimethylphosphoryl)phenyl)amino)pyrimidin-2-yl)amino)-3-methoxyphenyl)piperidin-4-yl)-3-((2-(2,6-dioxopiperidin-3-yl)-1,3-dioxoisoindolin-4-yl)amino)propenamide] are 0.0204 ± 0.0085 µM and 100 to 500 nM.
On the same counts, the results for `COc1cc(N2CCC(NC(=O)CCOCCOCCC(=O)N[C@H](C(=O)N3C[C@H](O)C[C@H]3C(=O)NCc3ccc(-c4scnc4C)cc3)C(C)(C)C)CC2)ccc1Nc1ncc(Cl)c(Nc2ccccc2P(C)(C)=O)n1` [SIAIS151124, (2S,4R)-1-((S)-2-(3-(2-(3-((1-(4-((5-chloro-4-((2-(dimethylphosphoryl)phenyl)amino)pyrimidin-2-yl)amino)-3-methoxyphenyl)piperidin-4-yl)amino)-3-oxopropoxy)ethoxy)propanamido)-3,3-dimethylbutanoyl)-4-hydroxy-N-(4-(4-methylthiazol-5-yl)benzyl)pyrrolidine-2-carboxamide] are 0.0769 ± 0.0159 µM and 100 to 500 nM.
In the experiment on SR (NPM-ALK) cells (setting [2]), `COc1cc(N2CCC(NC(=O)CCOCCOCCOCCC(=O)N[C@H](C(=O)N3C[C@H](O)C[C@H]3C(=O)NCc3ccc(-c4scnc4C)cc3)C(C)(C)C)CC2)ccc1Nc1ncc(Cl)c(Nc2ccccc2P(C)(C)=O)n1` [SIAIS151125, (2S,4R)-1-((S)-2-(tert-butyl)-16-((1-(4-((5-chloro-4-((2-(dimethylphosphoryl)phenyl)amino)pyrimidin-2-yl)amino)-3-methoxyphenyl)piperidin-4-yl)amino)-4,16-dioxo-7,10,13-trioxa-3-azahexadecanoyl)-4-hydroxy-N-(4-(4-methylthiazol-5-yl)benzyl)pyrrolidine-2-carboxamide] showed an IC50 of 0.0619 ± 0.0305 µM. This molecule also displayed a DC50 in experiment [1] of 100 to 500 nM.
Consider `COc1cc(N2CCC(NC(=O)CCOCCOCCOCCOCCC(=O)N[C@H](C(=O)N3C[C@H](O)C[C@H]3C(=O)NCc3ccc(-c4scnc4C)cc3)C(C)(C)C)CC2)ccc1Nc1ncc(Cl)c(Nc2ccccc2P(C)(C)=O)n1` [SIAIS151126, N1-(1-(4-((5-chloro-4-((2-(dimethylphosphoryl)phenyl)amino)pyrimidin-2-yl)amino)-3-methoxyphenyl)piperidin-4-yl)-N16-((S)-1-((2S,4R)-4-hydroxy-2-((4-(4-methylthiazol-5-yl)benzyl)carbamoyl)pyrrolidin-1-yl)-3,3-dimethyl-1-oxobutan-2-yl)-4,7,10,13-tetraoxahexadecanediamide], for which the IC50 in the experiment on SR (NPM-ALK) cells (setting [2]) came to 0.0319 ± 0.0119 µM. In addition, the DC50 in experiment [1] is 100 to 500 nM.
On the same counts, the results for `COc1cc(N2CCC(NC(=O)CCOCCOCCOCCOCCOCCC(=O)N[C@H](C(=O)N3C[C@H](O)C[C@H]3C(=O)NCc3ccc(-c4scnc4C)cc3)C(C)(C)C)CC2)ccc1Nc1ncc(Cl)c(Nc2ccccc2P(C)(C)=O)n1` [SIAIS151127, N1-(1-(4-((5-chloro-4-((2-(dimethylphosphoryl)phenyl)amino)pyrimidin-2-yl)amino)-3-methoxyphenyl)piperidin-4-yl)-N19-((S)-1-((2S,4R)-4-hydroxy-2-((4-(4-methylthiazol-5-yl)benzyl)carbamoyl)pyrrolidin-1-yl)-3,3-dimethyl-1-oxobutan-2-yl)-4,7,10,13,16-pentaoxanonadecanediamide] are 0.0364 ± 0.0235 µM and 20 to 100 nM.
On the same counts, the results for `COc1cc(N2CCC(NC(=O)COCCOCC(=O)N[C@H](C(=O)N3C[C@H](O)C[C@H]3C(=O)NCc3ccc(-c4scnc4C)cc3)C(C)(C)C)CC2)ccc1Nc1ncc(Cl)c(Nc2ccccc2P(C)(C)=O)n1` [SIAIS151128, (2S,4R)-1-((S)-2-(2-(2-(2-((1-(4-((5-chloro-4-((2-(dimethylphosphoryl)phenyl)amino)pyrimidin-2-yl)amino)-3-methoxyphenyl)piperidin-4-yl)amino)-2-oxoethoxy)ethoxy)acetamido)-3,3-dimethylbutanoyl)-4-hydroxy-N-(4-(4-methylthiazol-5-yl)benzyl)pyrrolidine-2-carboxamide] are 0.0063 ± 0.0002 µM and 100 to 500 nM.
For `CCc1cc2c(cc1N1CCN(C(=O)CCOCCOCCOCCOCCNc3cccc4c3C(=O)N(C3CCC(=O)NC3=O)C4=O)CC1)C(C)(C)c1[nH]c3cc(C#N)ccc3c1C2=O` (stereo not drawn) [SIAIS164014, 8-(4-(1-((2-(2,6-dioxopiperidin-3-yl)-1,3-dioxoisoindolin-4-yl)amino)-3,6,9,12-tetraoxapentadecan-15-oyl)piperazin-1-yl)-9-ethyl-6,6-dimethyl-11-oxo-6,11-dihydro-5H-benzo[b]carbazole-3-carbonitrile], in the experiment on SR (NPM-ALK) cells (setting [3]), inhibition was half-maximal at 0.081 µM (IC50). The DC50 in experiment [1] was 100 to 500 nM.
`CCc1cc2c(cc1N1CCN(C(=O)CCCNc3cccc4c3C(=O)N(C3CCC(=O)NC3=O)C4=O)CC1)C(C)(C)c1[nH]c3cc(C#N)ccc3c1C2=O` (stereo not drawn) [SIAIS164024, 8-(4-(4-((2-(2,6-dioxopiperidin-3-yl)-1,3-dioxoisoindolin-4-yl)amino)butanoyl)piperazin-1-yl)-9-ethyl-6,6-dimethyl-11-oxo-6,11-dihydro-5H-benzo[b]carbazole-3-carbonitrile]: in the experiment with SR (NPM-ALK) cells (setting [3]), 0.0358 µM corresponded to half-maximal inhibition (IC50). For the same molecule, in experiment [1], the DC50 was 1 to 10 nM; the “phosphorylation of AKT and ERK” value is given as “inhibited”; the “ALK protein level / degradation” value was “reduced the protein level of ALK protein”.
On the same counts, the results for `CCc1cc2c(cc1N1CCN(C(=O)CCCCCNc3cccc4c3C(=O)N(C3CCC(=O)NC3=O)C4=O)CC1)C(C)(C)c1[nH]c3cc(C#N)ccc3c1C2=O` (stereo not drawn) [SIAIS164026, 8-(4-(6-((2-(2,6-dioxopiperidin-3-yl)-1,3-dioxoisoindolin-4-yl)amino)hexanoyl)piperazin-1-yl)-9-ethyl-6,6-dimethyl-11-oxo-6,11-dihydro-5H-benzo[b]carbazole-3-carbonitrile] are 0.148 µM, 1 to 10 nM, “inhibited” and “reduced the protein level of ALK protein”.
Consider `CCc1cc2c(cc1N1CCN(C(=O)CCOCCOCCC(=O)N[C@H](C(=O)N3C[C@H](O)C[C@H]3C(=O)NCc3ccc(-c4scnc4C)cc3)C(C)(C)C)CC1)C(C)(C)c1[nH]c3cc(C#N)ccc3c1C2=O` [SIAIS164036, (2S,4R)-1-((S)-2-(3-(2-(3-(4-(3-cyano-9-ethyl-6,6-dimethyl-11-oxo-6,11-dihydro-5H-benzo[b]carbazol-8-yl)piperazin-1-yl)-3-oxopropoxy)ethoxy)propanamido)-3,3-dimethylbutanoyl)-4-hydroxy-N-(4-(4-methylthiazol-5-yl)benzyl)pyrrolidine-2-carboxamide], for which the IC50 in the experiment with SR (NPM-ALK) cells (setting [3]) was determined as 0.132 µM. Moreover, the DC50 in experiment [1] was in the range of 20 to 100 nM.
